In patent EP1166782A2, “Anti-retroviral pharmaceutical compositions” (Yang, Chi-Chiang, priority 2000, dated 2002):
Read-outs that look alike come from different tables or passages of the source.

Columns and labels:
cells = assay: Cellular activities in microculture tetrazolium (MTT) tests; assay type: cell-based
Procedure: The cellular activities were tested according to method as described in Alley M.C. et al, Cancer Res. 1988; 48(3):589-601. The principle of the method resides in that live cells can reduce MTT., i.e., 3-[4,5-dimethylthiazol-2-yl]-2,5-diphenyltetrazolium bromide)(tetrazolium salt) to formazan crystal through the dehydrogenase metabolism in Mitochondria. The crystal was dissolved in propanol and OD values were determined at 570 nm. The OD values can indicate the numbers of the live cells. The growth conditions of the cells were observed firstly. The cells were diluted to 2x10^4 cells/ml. 100µl sample taken by micropipet was placed in a 96-well plate. The plate was cultured for 24 hours as 37°C and 100µl of the compounds to be tested, which were prepared in medium, were added in each well. […] After culture for 4 hours, supernatant liquid was absorbed and 100 µl DMSO and 10µl /well was added. Each well was homogeneously mixed. The absorbance was determined at 570 nm.

[1] = tested on: Peripheral Blood Mononuclear Cells (PBMC); conditions: for The numbers of dead cells in 400 cells' count / % viability: 48 hours; for The numbers of dead cells in 400 cells' count: control 9 dead cells; for % viability: viable cells versus control (391);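 as to all read-outs here: trypan blue dye exclusion, cells stained and counted from quadruplicate dishes, DMSO vehicle kept under 0.5%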
Procedure: Viability of the cells was assayed by the trypan blue dye exclusion method. […] The concentration of DMSO was adjusted to be less than 0.5%. Cells from quadruplicated dishes were washed once with Hank's Balanced Salt Solution (HBSS). According to the process, the floating dead cells will be separated from the live monolayer cells. Then the cells were stained with trypan blue and counted. The total number of viable cells in the control group was considered as 100% viability and the agent-treated cells were compared with the control group for the determination of % viability. The % viability of agent-treated cells was calculated from the total number of viable cells in the control group and in the agent-treated group.

[2] = tested on: various HIV isolates (NL-43, JRCSF or 89.6); assay: P24 quantification, summary statements over all isolates; assay type: cell-based, HIV-1
Procedure: (§1) PBMCs were treated with various concentrations of CAPE, MC and PEDMC provided in Example 2 and simultaneously infected with […] and macrophage and T cells dual tropic (89.6) HIV-1 isolates. The next day, the added compounds were removed by washing methods or maintained at the same concentration. Samples were divided into two groups and the upernatants of the culture medium were collected at the 3 and 7 days after infection, respectively. The use of P24 EIA Reagent Kit of Abbott Laboratory compares the concentrations of viral P24 antigen with or without the compounds tested.

[3] = tested on: macrophage and T cells dual tropic (89.6); assay: P24 quantification (P24 EIA) in infected PBMCs, 89.6; assay type: cell-based, HIV-1; conditions: PBMC; for concentrations of the viral P24 antigen, 89.6(+): (+) original concentration of compound maintained after washing; for concentrations of the viral P24 antigen, 89.6(-): (-) compound removed after washing
Procedure: as §1

T cells-tropic (JRCSF) = assay: P24 quantification (P24 EIA) in infected PBMCs, JRCSF; assay type: cell-based, HIV-1; conditions: PBMC; for concentrations of the viral P24 antigen, JRCSF(+): (+) original concentration of compound maintained after washing; for concentrations of the viral P24 antigen, JRCSF(-): (-) compound removed after washing
Procedure: as §1

[4] = tested on: macrophage-tropic (NL-43); assay: P24 quantification (P24 EIA) in infected PBMCs, NL-43; assay type: cell-based, HIV-1; conditions: PBMC; for concentrations of the viral P24 antigen, NL43(+): (+) original concentration of compound maintained after washing; for concentrations of the viral P24 antigen, NL43(-): (-) compound removed after washing
Procedure: as §1

O=C(/C=C/c1ccc(O)c(O)c1)OCCc1ccccc1 [CAPE, caffeic acid phenethyl ester]
MTT 24h, cellular activities (cells; 0.1 µM): 97.49 relative percentage
MTT 48h, cellular activities (cells; 0.1 µM): 87.49 relative percentage
MTT 24h, cellular activities (cells; 0.5 µM): 104.67 relative percentage
MTT 48h, cellular activities (cells; 0.5 µM): 97.54 relative percentage
MTT 24h, cellular activities (cells; 1 µM): 109.25 relative percentage
MTT 48h, cellular activities (cells; 1 µM): 104.18 relative percentage
MTT 24h, cellular activities (cells; 5 µM): 102.41 relative percentage
MTT 48h, cellular activities (cells; 5 µM): 99.74 relative percentage
MTT 24h, cellular activities (cells; 10 µM): 93.07 relative percentage
MTT 48h, cellular activities (cells; 10 µM): 94.76 relative percentage
MTT 24h, cellular activities (cells; 25 µM): 98.65 relative percentage
MTT 48h, cellular activities (cells; 25 µM): 96.92 relative percentage
MTT 24h, cellular activities (cells; 50 µM): 95.49 relative percentage
MTT 48h, cellular activities (cells; 50 µM): 96.42 relative percentage
MTT 24h, cellular activities (cells; 100 µM): 96.15 relative percentage
MTT 48h, cellular activities (cells; 100 µM): 94.02 relative percentage
MTT 24h, cellular activities (cells; 200 µM): 106.8 relative percentage
MTT 48h, cellular activities (cells; 200 µM): 98.6 relative percentage
MTT 24h, cellular activities (cells; 400 µM): 108.62 relative percentage
MTT 48h, cellular activities (cells; 400 µM): 98.9 relative percentage
cellular activities in MTT tests (result in words) (cells; Figures 1 and 2, 24 and 48 hours): no substantial effects
The numbers of dead cells in 400 cells' count ([1]; 0.1 µM): 11
% viability ([1]; 0.1 µM): 389/391 (99.5%)
The numbers of dead cells in 400 cells' count ([1]; 0.5 µM): 9
% viability ([1]; 0.5 µM): 391/391 (100%)
The numbers of dead cells in 400 cells' count ([1]; 1 µM): 7
% viability ([1]; 1 µM): 393/391 (100.5%)
The numbers of dead cells in 400 cells' count ([1]; 5 µM): 10
% viability ([1]; 5 µM): 390/391 (99.7%)
The numbers of dead cells in 400 cells' count ([1]; 10 µM): 10
% viability ([1]; 10 µM): 390/391 (99.7%)
The numbers of dead cells in 400 cells' count ([1]; 25 µM): 5
% viability ([1]; 25 µM): 395/391 (101%)
The numbers of dead cells in 400 cells' count ([1]; 50 µM): 12
% viability ([1]; 50 µM): 388/391 (99.2%)
The numbers of dead cells in 400 cells' count ([1]; 100 µM): 11
% viability ([1]; 100 µM): 389/391 (99.5%)
The numbers of dead cells in 400 cells' count ([1]; 200 µM): 7
% viability ([1]; 200 µM): 393/391 (100.5%)
The numbers of dead cells in 400 cells' count ([1]; 400 µM): 8
% viability ([1]; 400 µM): 392/391 (100.3%)
viabilities of PBMC under high-dose versus low-dose treatments (result in words) ([1]; high dose up to 400 µM compared with 0.1-10 µM): no substantial differences
viral replications (result in words) ([2]; Figures 3-5, PBMC infected with NL-43, JRCSF or 89.6): significantly inhibited viral replications
inhibit viral replication ([2]; at the concentration of 100 µM or less, various HIV isolates): 100%
concentrations of the viral P24 antigen, 89.6(+) ([3]; 0.1 µM): 1000 unit
concentrations of the viral P24 antigen, 89.6(-) ([3]; 0.1 µM): 1000 unit
concentrations of the viral P24 antigen, 89.6(+) ([3]; 0.5 µM): 899.22 unit
concentrations of the viral P24 antigen, 89.6(-) ([3]; 0.5 µM): 949.75 unit
concentrations of the viral P24 antigen, 89.6(+) ([3]; 1 µM): 643.71 unit
concentrations of the viral P24 antigen, 89.6(-) ([3]; 1 µM): 1000 unit
concentrations of the viral P24 antigen, 89.6(+) ([3]; 5 µM): 243.87 unit
concentrations of the viral P24 antigen, 89.6(-) ([3]; 5 µM): 280.51 unit
concentrations of the viral P24 antigen, 89.6(+) ([3]; 10 µM): 230.32 unit
concentrations of the viral P24 antigen, 89.6(-) ([3]; 10 µM): 255.21 unit
concentrations of the viral P24 antigen, 89.6(+) ([3]; 25 µM): 0 unit
concentrations of the viral P24 antigen, 89.6(-) ([3]; 25 µM): 182.44 unit
concentrations of the viral P24 antigen, 89.6(+) ([3]; 50 µM): 0 unit
concentrations of the viral P24 antigen, 89.6(-) ([3]; 50 µM): 243.53 unit
concentrations of the viral P24 antigen, 89.6(+) ([3]; 100 µM): 0 unit
concentrations of the viral P24 antigen, 89.6(-) ([3]; 100 µM): 113.2 unit
concentrations of the viral P24 antigen, 89.6(+) ([3]; 200 µM): 0 unit
concentrations of the viral P24 antigen, 89.6(-) ([3]; 200 µM): 0 unit
concentrations of the viral P24 antigen, 89.6(+) ([3]; 400 µM): 0 unit
concentrations of the viral P24 antigen, 89.6(-) ([3]; 400 µM): 0 unit
concentrations of the viral P24 antigen, JRCSF(+) (T cells-tropic (JRCSF); 0.1 µM): 1000 unit
concentrations of the viral P24 antigen, JRCSF(-) (T cells-tropic (JRCSF); 0.1 µM): 1000 unit
concentrations of the viral P24 antigen, JRCSF(+) (T cells-tropic (JRCSF); 0.5 µM): 1000 unit
concentrations of the viral P24 antigen, JRCSF(-) (T cells-tropic (JRCSF); 0.5 µM): 1000 unit
concentrations of the viral P24 antigen, JRCSF(+) (T cells-tropic (JRCSF); 1 µM): 1000 unit
concentrations of the viral P24 antigen, JRCSF(-) (T cells-tropic (JRCSF); 1 µM): 1000 unit
concentrations of the viral P24 antigen, JRCSF(+) (T cells-tropic (JRCSF); 5 µM): 965.62 unit
concentrations of the viral P24 antigen, JRCSF(-) (T cells-tropic (JRCSF); 5 µM): 1000 unit
concentrations of the viral P24 antigen, JRCSF(+) (T cells-tropic (JRCSF); 10 µM): 642.72 unit
concentrations of the viral P24 antigen, JRCSF(-) (T cells-tropic (JRCSF); 10 µM): 34.42 unit
concentrations of the viral P24 antigen, JRCSF(+) (T cells-tropic (JRCSF); 25 µM): 0 unit
concentrations of the viral P24 antigen, JRCSF(-) (T cells-tropic (JRCSF); 25 µM): 0 unit
concentrations of the viral P24 antigen, JRCSF(+) (T cells-tropic (JRCSF); 50 µM): 0 unit
concentrations of the viral P24 antigen, JRCSF(-) (T cells-tropic (JRCSF); 50 µM): 0 unit
concentrations of the viral P24 antigen, JRCSF(+) (T cells-tropic (JRCSF); 100 µM): 0 unit
concentrations of the viral P24 antigen, JRCSF(-) (T cells-tropic (JRCSF); 100 µM): 0 unit
concentrations of the viral P24 antigen, JRCSF(+) (T cells-tropic (JRCSF); 200 µM): 0 unit
concentrations of the viral P24 antigen, JRCSF(-) (T cells-tropic (JRCSF); 200 µM): 0 unit
concentrations of the viral P24 antigen, JRCSF(+) (T cells-tropic (JRCSF); 400 µM): 0 unit
concentrations of the viral P24 antigen, JRCSF(-) (T cells-tropic (JRCSF); 400 µM): 0 unit
concentrations of the viral P24 antigen, NL43(+) ([4]; 0.1 µM): 1000 unit
concentrations of the viral P24 antigen, NL43(-) ([4]; 0.1 µM): 1000 unit
concentrations of the viral P24 antigen, NL43(+) ([4]; 0.5 µM): 1000 unit
concentrations of the viral P24 antigen, NL43(-) ([4]; 0.5 µM): 1000 unit
concentrations of the viral P24 antigen, NL43(+) ([4]; 1 µM): 1000 unit
concentrations of the viral P24 antigen, NL43(-) ([4]; 1 µM): 1000 unit
concentrations of the viral P24 antigen, NL43(+) ([4]; 5 µM): 1000 unit
concentrations of the viral P24 antigen, NL43(-) ([4]; 5 µM): 1000 unit
concentrations of the viral P24 antigen, NL43(+) ([4]; 10 µM): 990.64 unit
concentrations of the viral P24 antigen, NL43(-) ([4]; 10 µM): 1000 unit
concentrations of the viral P24 antigen, NL43(+) ([4]; 25 µM): 975.64 unit
concentrations of the viral P24 antigen, NL43(-) ([4]; 25 µM): 988.28 unit
concentrations of the viral P24 antigen, NL43(+) ([4]; 50 µM): 166.12 unit
concentrations of the viral P24 antigen, NL43(-) ([4]; 50 µM): 865.44 unit
concentrations of the viral P24 antigen, NL43(+) ([4]; 100 µM): 0 unit
concentrations of the viral P24 antigen, NL43(-) ([4]; 100 µM): 62.26 unit
concentrations of the viral P24 antigen, NL43(+) ([4]; 200 µM): 0 unit
concentrations of the viral P24 antigen, NL43(-) ([4]; 200 µM): 0 unit
concentrations of the viral P24 antigen, NL43(+) ([4]; 400 µM): 0 unit
concentrations of the viral P24 antigen, NL43(-) ([4]; 400 µM): 0 unit
